# Patent publication US10300023B1, “Stabilized assembled nanostructures for delivery of encapsulated agents” (The Brigham and Women's Hospital, Inc., priority 2015, dated 2019)
# Tests used:
# [1] = tested on: LNCaP androgen-sensitive human prostate adenocarcinoma cells; experiment: In vitro cytotoxicity (% metabolic activity) in LNCaP cells; type: cell-based; conditions: n = 3
# Description: (§1) Nanofiber cytotoxicity was studied in vitro in prostate cancer cells—PC3 and LNCaP.
# (§2) FIG. 8A is a line graph showing the % metabolic activity of PC3 (PC-3) human prostate cancer cells incubated with a range of concentrations (μM) of a vitamin C solution for 48 hours (“Vit C 48 h”, black square) or of stabilized vitamin C-derived particles for 24 hours or 48 hours (“Vit C particles 24 h” (grey square) and “Vit C particles 48 h” (triangle), respectively). FIG. 8B is a line graph showing the % metabolic activity of LNCaP androgen-sensitive human prostate adenocarcinoma cells incubated with Vit C for 48 hours (black squares), Vit C particles for 24 hours (grey squares), and Vit C particles for 48 hours (triangles).
# (§3) FIGS. 9A and 9B are line graphs showing the % metabolic activity of PC3 cells (FIG. 9A) and the % metabolic activity of LNCaP cells (FIG. 9B) when incubated with a range of concentrations (μM) of stabilized vitamin C-derived particles (“Vit C particles”, grey squares), of free docetaxel (“free DTX”, diamonds), or of stabilized vitamin C-derived particles encapsulating docetaxel (“DTX loaded Vit C particles”, triangles).
# [2] = tested on: PC3 (PC-3) human prostate cancer cells; experiment: In vitro cytotoxicity (% metabolic activity) in PC3 cells; type: cell-based; conditions: n = 3
# Description: as §1, §2, §3
smiles,measurement,setting,value
"CC(=O)O[C@@]12CO[C@@H]1C[C@H](O)[C@@]1(C)C(=O)[C@H](O)C3=C(C)[C@@H](OC(=O)[C@H](O)[C@@H](NC(=O)OC(C)(C)C)c4ccccc4)C[C@@](O)([C@@H](OC(=O)c4ccccc4)[C@H]21)C3(C)C [Free DTX, docetaxel]",IC50,[1],3.6 µM
same,IC50,[2],620 nM
